Nine compounds from patent US20260049101A1, “TOPICAL TREATMENT OF SKIN CANCER USING OLIGOPEPTIDES” (BACOBA AG, priority 2022, published 2026) can be followed below.

pIC50: −log10 of the molar value. “Also recorded” adds a separate entry of the source. Where two headings read alike, the source gives them in different places. Numbered stars: 1 amine (or outer) side, 2 acyl side, 3 side chain; on linkers, the order of the positions; unused ones are H or OH. Square brackets hold non-standard residues; d marks the D form. Peptide text beside a SMILES is read from it. * marks the point of attachment. X1 = CCC(=O)C[C@H](O)C[C@@H](C)C[C@H](N[*:1])C(=O)[*:2]; Hexenoyl(2E,4S-Me) = CC[C@H](C)/C=C/C(=O)*; X7 = O=C([C@H](Cc1nc2ccccc2o1)N[*:1])[*:2]; Leu(3R-OH) = CC(C)[C@@H](O)[C@H](N)C(=O)O; Abu(4,4,4-F3) = N[C@@H](CC(F)(F)F)C(=O)O; NH((S)CH(Me)CH2NMe2) = C[C@@H](CN(C)C)N*; Pro(4S-Me) = C[C@@H]1CN[C@H](C(=O)O)C1; NH(1-CH2NMe2-cBu) = CN(C)CC1(N*)CCC1; Gly(octyl) = CCCCCCCC[C@H](N)C(=O)O; Oxazole4CO(2-Me) = Cc1nc(C(=O)*)co1; Benzoyl(4-F) = O=C(c1ccc(F)cc1)*; hCha = N[C@@H](CCC1CCCCC1)C(=O)O; β3hL = CC(C)C[C@H](N)CC(=O)O; NHCH2CH2NMe2 = CN(C)CCN*; Nle = CCCC[C@H](N)C(=O)O; NHCH2CH2NHMe = CNCCN*; Aib = CC(C)(N)C(=O)O; βAla = NCCC(=O)O

The subject of data set [1] is patient derived Basal Cell Carcinoma (BCC). Format: cell-based, human. The settings on record: 20 μM, 4 days, vs DMSO; p<0.002. From the text: Tumour material was harvested from an infiltrative basal cell carcinoma (BCC) from a patient's nose.
The test system is the same in data set [2]. Format: cell-based, human. The settings on record: 20 μM, 4 days, vs DMSO.
Data set [3] concerns B16F10 xenografts in C57BL/6 mice. As to the kind of experiment: In vivo efficacy test, dermal treatment of intradermal B16-F10 tumours (tumour volume). More on the design: species or system mouse. Conditions: 20 μl of 0.2% leucinostatin A dermally, treatment not continued longer than 7 days, observed to day 16. Here is the method:
(§1) In vivo efficacy test methodology. C57Bl/6 mice (Janvier Labs); females; 6-8 weeks old at beginning of the treatment. The tumour was induced through intradermal inoculation of 1×10^5 cells per mouse intradermally in the skin of the neck. A total of 24 mice were used (n=8 for vehicle, n=8 for 5% 6027, n=8 for leucinostatin A 0.2%). Test item was applied starting on day 1 after inoculation of the tumour cells. The test items of 20 μl of 5% 6027 and of 0.2% Leucinostatin A were applied dermally with a pipette once a day every day for up to 21 days to the intact skin area of about 1 cm^2 on the site were the B16-F10 cells had been injected. If ulceration occurred then the animal was removed from the test and sacrificed.
The read out was tumour volume measured three times a week expressed as tumour volume (in cm^3). Additionally, tumour samples were taken for histological analysis (Tumour FFPE) (2 mice per group).

Data set [4] can be described thus: Dermal tolerability in the in vivo efficacy test. More on the design: species or system mouse. Here is the method: as §1
Data set [5] concerns cutaneous squamous cell carcinoma cell line SCC12. As to the kind of experiment: In vitro anti-proliferative assay (resazurin) in SCC12. Format: cell-based. Conditions: SCC12, 72 hours. An excerpt: Methodology. The cutaneous squamous cell carcinoma cell culture SCC12 was cultivated in keratinocyte-SFM media (KSFM, Cat #17005042, Gibco) supplemented with human recombinant epidermal growth factor 1-53 (EGF 1-53) and bovine pituitary extract (BFE).
Vehicle treated wells were set to 100% viability.

`CS(=O)(=O)c1ccc(C(=O)Nc2ccc(Cl)c(-c3ccccn3)c2)c(Cl)c1` [Vismodegib, reference compound]: the “cell proliferation (Ki67)” value in data set [1] is given as “significantly reduced”. For the same compound, in data set [2], the “apoptotic cells (TUNEL positive cells)” value is given as “Significant increase” and the “cell proliferation (Ki67)” value was “significantly reduced”.

On to `CCC(=O)C[C@H](O)C[C@@H](C)C[C@H](NC(=O)[C@@H]1C[C@H](C)CN1C(=O)/C=C/[C@@H](C)CC)C(=O)N[C@H](C(=O)NC(C)(C)C(=O)N[C@@H](CC(C)C)C(=O)N[C@@H](CC(C)C)C(=O)NC(C)(C)C(=O)NC(C)(C)C(=O)NCCC(=O)N[C@@H](C)CN(C)C)[C@H](O)C(C)C` [leucinostatin A, reference compound] ({Hexenoyl(2E,4S-Me)}-[Pro(4S-Me)][X1][Leu(3R-OH)][Aib]LL[Aib][Aib][βAla]-{NH((S)CH(Me)CH2NMe2)}; N-terminus and C-terminus assumed), for which, in data set [3], the “reduction of tumour volume” value is “no significant reduction of tumour volume”. The skin irritation result in data set [4] (0.2% leucinostatin A (lowest test concentration)) was “strong skin irritation with destruction of the epidermis; also recorded: strong skin irritating effect”. The “tolerability of dermal treatment” value in data set [4] (0.2% leucinostatin A once a day) is on record as “not tolerated”.

In data set [5], `CC(C)C[C@H](NC(=O)[C@H](CCC1CCCCC1)NC(=O)[C@@H]1CCCN1C(=O)c1ccc(F)cc1)C(=O)NC(C)(C)C(=O)N[C@@H](CC(C)C)C(=O)N[C@@H](CC(F)(F)F)C(=O)NC(C)(C)C(=O)NC(C)(C)C(=O)NCCC(=O)NC1(CN(C)C)CCC1` [Compound 21369, (2S)-2-[(2S)-4-cyclohexyl-2-{[(2S)-1-(4-fluorobenzoyl)-pyrrolidin-2-yl]formamido}butan-amido]-N-(1-{[(1S)-1-{[(1S)-1-({1-[(1-{[2-({1-[(dimethylamino)methyl]cyclobutyl}carba-moyl)ethyl]carbamoyl}-1-methylethyl)carbamoyl]-1-methylethyl}carbamoyl)-3,3,3-trifluoropropyl]carbamoyl}-3-methylbutyl]carbamoyl}-1-methylethyl)-4-methylpentanamide] ({Benzoyl(4-F)}-P[hCha]L[Aib]L[Abu(4,4,4-F3)][Aib][Aib][βAla]-{NH(1-CH2NMe2-cBu)}) showed a pIC50 of 6.78.

Consider `CCCC[C@H](NC(=O)[C@@H]1CCCN1C(=O)c1coc(C)n1)C(=O)N[C@@H](CC(C)C)C(=O)NC(C)(C)C(=O)N[C@@H](CC(C)C)C(=O)N[C@@H](CC(C)C)C(=O)NC(C)(C)C(=O)NC(C)(C)C(=O)NCCC(=O)NC1(CN(C)C)CCC1` [Compound 6781, (2S)—N-[(1S)-1-[(1-{[(1S)-1-{[(1S)-1-({1-[(1-{[2-({1-[(dimethylamino)methyl]cyclobutyl}carbamoyl)ethyl]carbamoyl}-1-methylethyl)carbamoyl]-1-methylethyl}carbamoyl)-3-methylbutyl]carbamoyl}-3-methylbutyl]carbamoyl}-1-methylethyl)carbamoyl]-3-methylbutyl]-2-{[(2S)-1-(2-methyl-1,3-oxazole-4-carbonyl)pyrrolidin-2-yl]formamido}hexanamide] ({Oxazole4CO(2-Me)}-P[Nle]L[Aib]LL[Aib][Aib][βAla]-{NH(1-CH2NMe2-cBu)}), for which, in data set [5], the pIC50 is 5.16.

`CC(C)C[C@@H](CC(=O)NC(C)(C)C(=O)NC(C)(C)C(=O)NCCC(=O)NC1(CN(C)C)CCC1)NC(=O)C[C@H](CC(C)C)NC(=O)C(C)(C)NC(=O)C[C@H](CC(C)C)NC(=O)[C@H](CCC1CCCCC1)NC(=O)[C@@H]1CCCN1C(=O)c1ccc(F)cc1` [Compound 21315, (3S)-3-[(2S)-4-cyclohexyl-2-{[(2S)-1-(4-fluorobenzoyl)pyrrolidin-2-yl]formamido}butanamido]-N-(1-{[(2S)-1-{[(2S)-1-({1-[(1-{[2-({1-[(dimethylamino)methyl]cyclobutyl}carbamoyl)ethyl]carbamoyl}-1-methylethyl)carbamoyl]-1-methylethyl}carbamoyl)-4-methylpentan-2-yl]carbamoyl}-4-methylpentan-2-yl]carbamoyl}-1-methylethyl)-5-methylhexanamide] ({Benzoyl(4-F)}-P[hCha][β3hL][Aib][β3hL][β3hL][Aib][Aib][βAla]-{NH(1-CH2NMe2-cBu)}) showed a pIC50 in data set [5] of 5.51.

`Cc1nc(C(=O)N2CCC[C@H]2C(=O)N[C@@H](CCC2CCCCC2)C(=O)N[C@@H](CC(C)C)C(=O)NC(C)(C)C(=O)N[C@@H](CC(C)C)C(=O)N[C@@H](CC(C)C)C(=O)NC(C)(C)C(=O)NC(C)(C)C(=O)NCCC(=O)NC2(CN(C)C)CCC2)co1` [Compound 6025, (2S)-2-[(2S)-4-cyclohexyl-2-{[(2S)-1-(2-methyl-1,3-oxazole-4-carbonyl)pyrrolidin-2-yl]formamido}butanamido]-N-(1-{[(1S)-1-{[(1S)-1-({1-[(1-{[2-({1-[(dimethylamino)methyl]cyclobutyl}carbamoyl)ethyl]carbamoyl}-1-methylethyl)carbamoyl]-1-methylethyl}carbamoyl)-3-methylbutyl]carbamoyl}-3-methylbutyl]carbamoyl}-1-methylethyl)-4-methylpentanamide] ({Oxazole4CO(2-Me)}-P[hCha]L[Aib]LL[Aib][Aib][βAla]-{NH(1-CH2NMe2-cBu)}) had a pIC50 in data set [5] of 6.40.

Consider `CC(C)C[C@H](NC(=O)[C@H](Cc1nc2ccccc2o1)NC(=O)[C@@H]1CCCN1C(=O)c1ccc(F)cc1)C(=O)NC(C)(C)C(=O)N[C@@H](CC(C)C)C(=O)N[C@@H](CC(C)C)C(=O)NC(C)(C)C(=O)NC(C)(C)C(=O)NCCC(=O)NC1(CN(C)C)CCC1` [Compound 7850, (2S)-2-[(2S)-3-(1,3-benzoxazol-2-yl)-2-{[(2S)-1-(4-fluorobenzoyl)pyrrolidin-2-yl]formamido}propanamido]-N-(1-{[(1S)-1-{[(1S)-1-({1-[(1-{[2-({1-[(dimethylamino)methyl]cyclobutyl}carbamoyl)ethyl]carbamoyl}-1-methylethyl)carbamoyl]-1-methylethyl}carbamoyl)-3-methylbutyl]carbamoyl}-3-methylbutyl]carbamoyl}-1-methylethyl)-4-methylpentanamide] ({Benzoyl(4-F)}-P[X7]L[Aib]LL[Aib][Aib][βAla]-{NH(1-CH2NMe2-cBu)}), for which, in data set [5], the pIC50 was 5.98.

Regarding `CCCCCCCC[C@H](NC(=O)[C@@H]1CCCN1C(=O)c1coc(C)n1)C(=O)N[C@@H](CC(C)C)C(=O)NC(C)(C)C(=O)N[C@@H](CC(C)C)C(=O)N[C@@H](CC(C)C)C(=O)NC(C)(C)C(=O)NC(C)(C)C(=O)NCCC(=O)NCCNC` [Compound 7058, (2S)-2-{[(2S)-1-(2-methyl-1,3-oxazole-4-carbonyl)pyrrolidin-2-yl]formamido}-N-[(1S)-3-methyl-1-[(1-methyl-1-{[(1S)-3-methyl-1-{[(1S)-3-methyl-1-{[1-methyl-1-({1-methyl-1-[(2-{[2-(methylamino)ethyl]carbamoyl}ethyl)carbamoyl]ethyl}carbamoyl)ethyl]carbamoyl}butyl]carbamoyl}butyl]carbamoyl}ethyl)carbamoyl]butyl]decanamide] ({Oxazole4CO(2-Me)}-P[Gly(octyl)]L[Aib]LL[Aib][Aib][βAla]-NHCH2CH2NHMe), the pIC50 in data set [5] is 6.14.

Turning to `CC(C)C[C@H](NC(=O)[C@H](CCC1CCCCC1)NC(=O)[C@@H]1CCCN1C(=O)c1ccc(F)cc1)C(=O)NC(C)(C)C(=O)N[C@@H](CC(C)C)C(=O)N[C@@H](CC(C)C)C(=O)NC(C)(C)C(=O)NC(C)(C)C(=O)NCCC(=O)NCCN(C)C` [Compound 8343, (2S)-2-[(2S)-4-cyclohexyl-2-{[(2S)-1-(4-fluorobenzoyl)pyrrolidin-2-yl]formamido}butanamido]-N-(1-{[(1S)-1-{[(1S)-1-{[1-({1-[(2-{[2-(dimethylamino)ethyl]carbamoyl}ethyl)carbamoyl]-1-methylethyl}carbamoyl)-1-methylethyl]carbamoyl}-3-methylbutyl]carbamoyl}-3-methylbutyl]carbamoyl}-1-methylethyl)-4-methylpentanamide] ({Benzoyl(4-F)}-P[hCha]L[Aib]LL[Aib][Aib][βAla]-NHCH2CH2NMe2), the pIC50 in data set [5] is 6.62.
